Biological target: T1, hROMK (hKir1.1) (Homo sapiens, UniProt P48048)
T1 construct: expressed in transfected cells
T1 sequence (P48048 1-391): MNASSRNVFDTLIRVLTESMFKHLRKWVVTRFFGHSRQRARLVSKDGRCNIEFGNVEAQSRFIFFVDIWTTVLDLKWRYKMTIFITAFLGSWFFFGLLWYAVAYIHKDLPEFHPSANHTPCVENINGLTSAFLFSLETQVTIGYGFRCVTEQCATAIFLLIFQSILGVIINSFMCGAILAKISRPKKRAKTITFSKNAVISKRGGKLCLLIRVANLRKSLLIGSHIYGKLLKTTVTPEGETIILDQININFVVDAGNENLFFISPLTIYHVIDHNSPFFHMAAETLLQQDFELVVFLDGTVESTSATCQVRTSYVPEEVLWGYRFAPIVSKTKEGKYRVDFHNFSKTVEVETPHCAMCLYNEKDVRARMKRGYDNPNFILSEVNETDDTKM
Test: Thallium Flux Assay
Format: cell-based
Details: HEK293 cells stably expressing hROMK (hKir1.1), FLIPR-Tetra; read-out: Thallium Flux IC50
How it was run: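 HEK293 cells stably expressing hROMK, loaded with FluxOR dye 90 min at ambient temperature, then compound 30 min with 0.3 mM ouabain in probenecid buffer pH 7.4.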

Question: For N#Cc1c(F)ccc([C@H]2CN3CCN(C(=O)Cc4cnc(-n5cnnn5)nc4)C[C@@H]3CO2)c1Cl [Example 126, 2-chloro-6-fluoro-3-[(3S,9aR)-8-{[2-(1H-tetrazol-1-yl)pyrimidin-5-yl]acetyl}octahydropyrazino[2,1-c][1,4]oxazin-3-yl]benzonitrile], which IC50 is on record?
Answer: Its IC50 is 140 nM.

Question: For Cc1nc(CC(=O)N2CCN3C[C@@H](c4ccc(F)c(C#N)c4C)OC[C@@H]3C2)ccc1-n1cnnn1 [Example 128, 6-fluoro-2-methyl-3-[(3R,9aS)-8-{[6-methyl-5-(1H-tetrazol-1-vl)pvridin-2-yl]acetyl}octahydropyrazino[2,1-c][1,4]oxazin-3-yl]benzonitrile], which IC50 is on record?
Answer: Its IC50 is 180 nM.

Question: Cc1cc(CC(=O)N2CCN3C[C@@H](c4ccc(F)c(C#N)c4C)OC[C@H]3C2)ncc1-n1cnnn1 [Example 129, 6-fluoro-2-methyl-3-[(3R,9aR)-8-{[4-methyl-5-(1H-tetrazol-1-yl)pyridin-2-yl]acetyl}octahydropyrazino[2,1-c][1,4]oxazin-3-yl]benzonitrile] was tested. Which IC50 did it give?
Answer: Its IC50 is 250 nM.

Question: Cc1nc(CC(=O)N2CCN3C[C@H](c4ccc(F)c(C#N)c4C)OC[C@H]3C2)ccc1-n1cnnn1 [Example 131, 6-fluoro-2-methyl-3-[(3S,9aR)-8-{[6-methyl-5-(1H-tetrazol-1-vl)pvridin-2-yl]acetul}octahydropyrazino[2,1-c][1,4]oxazin-3-yl]benzonitrile] was tested. Which IC50 did it give?
Answer: The IC50 was 200 nM.

Question: How did the IC50 turn out when Cc1cc(CC(=O)N2CCN3C[C@H](c4ccc(F)c(C#N)c4C)OC[C@H]3C2)cnc1-n1cnnn1 [Example 134, 6-fluoro-2-methyl-3-[(3S,9aR)-8-{[5-methyl-6-(1H-tetrazol-1-yl)pyridin-3-yl]acetyl}octahydropyrazino[2,1-c][1,4]oxazin-3-yl]benzonitrile] was run?
Answer: The IC50 was 280 nM.

Question: Which IC50 does the source give for Cc1nc(-n2cnnn2)ncc1CC(=O)N1CCN2C[C@@H](c3ccc(F)c(C#N)c3Cl)OC[C@H]2C1 [Example 138, 2-chloro-6-fluoro-3-[(3R,9aR)-8-{[4-methyl-2-(1H-tetrazol-1-vl)pvrimidin-5-yl]acetyl}octahydropyrazino[2,1-c][1,4]oxazin-3-yl]benzonitrile] here?
Answer: The IC50 was 140 nM.

Question: For COc1c([C@H]2CN3CCN(C(=O)Cc4cnc(-n5cnnn5)nc4)C[C@H]3CO2)ccc(F)c1C#N [Example 139, 6-fluoro-2-methoxy-3-[(3S,9aS)-8-{[2-(1H-tetrazol-1-vl)pvrimidin-5-yl]acetyl}octahydropyrazino[2,1-c][1,4]oxazin-3-yl]benzonitrile], which IC50 is on record?
Answer: Its IC50 is 160 nM.

Question: COc1c([C@@H]2CN3CCN(C(=O)Cc4cnc(-n5cnnn5)nc4)C[C@H]3CO2)ccc(F)c1C#N [Example 140, 6-fluoro-2-methoxy-3-[(3R,9aS)-8-{[2-(1H-tetrazol-1-vl)pvrimidin-5-yl]acetyl}octahydropyrazino[2,1-c][1,4]oxazin-3-yl]benzonitrile] was tested. Which IC50 did it give?
Answer: The IC50 was 120 nM.

Question: For N#Cc1cc([C@@H]2CN3CCN(C(=O)Cc4cnc(-n5cnnn5)nc4)C[C@@H]3CO2)ccc1F [Example 141, 2-fluoro-5-[(3R,9aR)-8-{[2-(1H-tetrazol-1-yl)pyrimidin-5-yl]acetyl}octahydropyrazino[2,1-c][1,4]oxazin-3-yl]benzonitrile], which IC50 is on record?
Answer: The IC50 was 300 nM.

Question: How did the IC50 turn out when COc1cc([C@H]2CN3CCN(C(=O)Cc4cnc(-n5cnnn5)nc4)C[C@H]3CO2)ccc1C#N [Example 143, 2-methoxy-4-[(3S,9aS)-8-{[2-(1H-tetrazol-1-yl)pyrimidin-5-yl]acetyl}octahydropyrazino[2,1-c][1,4]oxazin-3-yl]benzonitrile] was run?
Answer: The IC50 was 190 nM.

Question: With COc1cc([C@@H]2CN3CCN(C(=O)Cc4cnc(-n5cnnn5)nc4)C[C@H]3CO2)ccc1C#N [Example 144, 2-methoxy-4-[(3R,9aS)-8-{[2-(1H-tetrazol-1-yl)pyrimidin-5-yl]acetyl}octahydropyrazino[2,1-c][1,4]oxazin-3-yl]benzonitrile] as the molecule, how does the IC50 read?
Answer: Its IC50 is 390 nM.

Question: For Cc1c([C@@H]2CN3CCN(C(=O)Cc4cnc(-n5cnnn5)c(F)c4)C[C@@H]3CO2)ccc(F)c1C#N [Example 146, 6-fluoro-3-[(3R,9aR)-8-{[5-fluoro-6-(1H-tetrazol-1-yl)pyridin-3-yl]acetyl}octahydropyrazino[2,1-c][1,4]oxazin-3-yl]-2-methylbenzonitrile], which IC50 is on record?
Answer: Its IC50 is 90 nM.

Question: Which IC50 does the source give for Cc1c([C@H]2CN3CCN(C(=O)Cc4cnc(-n5cnnn5)c(F)c4)C[C@@H]3CO2)ccc(F)c1C#N [Example 147, 6-fluoro-3-[(3S,9aR)-8-{[5-fluoro-6-(1H-tetrazol-1-yl)pyridin-3-yl]acetyl}octahydropyrazino[2,1-c][1,4]oxazin-3-yl]-2-methylbenzonitrile] here?
Answer: Its IC50 is 140 nM.

Question: How did the IC50 turn out when Cc1c([C@@H]2CN3CCN(C(=O)Cc4cnc(-n5cnnn5)c(F)c4)C[C@H]3CO2)ccc(F)c1C#N [Example 148, 6-fluoro-3-[(3R,9aS)-8-{[5-fluoro-6-(1H-tetrazol-1-yl)pyridin-3-yl]acetyl}octahydropyrazino[2,1-c][1,4]oxazin-3-yl]-2-methylbenzonitrile] was run?
Answer: The IC50 was 80 nM.

Question: With Cc1c([C@H]2CN3CCN(C(=O)Cc4cnc(-n5cnnn5)c(F)c4)C[C@H]3CO2)ccc(F)c1C#N [Example 149, 6-fluoro-3-[(3S,9aS)-8-{[5-fluoro-6-(1H-tetrazol-1-yl)pyridin-3-yl]acetyl}octahydropyrazino[2,1-c][1,4]oxazin-3-yl]-2-methylbenzonitrile] as the molecule, how does the IC50 read?
Answer: The IC50 was 130 nM.

Question: For Cc1nc(-n2cnnn2)nc(C)c1CC(=O)N1CCN2C[C@H](c3ccc(F)c(C#N)c3C)OC[C@@H]2C1 [Example 150, 3-[(3S,9aS)-8-{[4,6-dimethyl-2-(1H-tetrazol-1-yl)pyrimidin-5-yl]acetyl}octahydropyrazino[2,1-c][1,4]oxazin-3-yl]-6-fluoro-2-methylbenzonitrile], which IC50 is on record?
Answer: Its IC50 is 290 nM.

Question: Which IC50 does the source give for Cc1nc(-n2cnnn2)nc(C)c1CC(=O)N1CCN2C[C@@H](c3ccc(F)c(C#N)c3C)OC[C@H]2C1 [Example 152, 3-[(3R,9aR)-8-{[4,6-dimethyl-2-(1H-tetrazol-1-yl)pyrimidin-5-yl]acetyl}octahydropyrazino[2,1-c][1,4]oxazin-3-yl]-6-fluoro-2-methylbenzonitrile] here?
Answer: The IC50 was 200 nM.

Same assay, conditions: Thallium Flux IC50

Question: How did the IC50 turn out when Cc1nc(CC(=O)N2CCN3C[C@H](c4ccc(F)c(C#N)c4C)OC[C@@H]3C2)ccc1-n1cnnn1 [Example 127, 6-fluoro-2-methyl-3-[(3S,9aS)-8-{[6-methyl-5-(1H-tetrazol-1-vl)pvridin-2-yl]acetyl}octahydropyrazino[2,1-c][1,4]oxazin-3-yl]benzonitrile] was run?
Answer: The IC50 was 90 nM.

Question: Which IC50 does the source give for Cc1cc(CC(=O)N2CCN3C[C@H](c4ccc(F)c(C#N)c4C)OC[C@@H]3C2)ncc1-n1cnnn1 [Example 130, 6-fluoro-2-methyl-3-[(3S,9aS)-8-{[4-methyl-5-(1H-tetrazol-1-yl)pyridin-2-yl]acetyl}octahydropyrazino[2,1-c][1,4]oxazin-3-yl]benzonitrile] here?
Answer: Its IC50 is 190 nM.

Question: COc1ccc([C@@H]2CN3CCN(C(=O)Cc4cnc(-n5cnnn5)nc4)C[C@H]3CO2)c(C)c1C#N [Example 135, 6-methoxy-2-methyl-3-[(3R,9aS)-8-{[2-(1H-tetrazol-1-vl)pvrimidin-5-yl]acetyl}octahydropyrazino[2,1-c][1,4]oxazin-3-yl]benzonitrile] was tested. Which IC50 did it give?
Answer: Its IC50 is 330 nM.

Question: For N#Cc1c(F)ccc([C@@H]2CN3CCN(C(=O)Cc4cnc(-n5cnnn5)nc4)C[C@H]3CO2)c1Cl [Example 136, 2-chloro-6-fluoro-3-[(3R,9aS)-8-{[2-(1H-tetrazol-1-yl)pyrimidin-5-yl]acetyl}octahydropyrazino[2,1-c][1,4]oxazin-3-yl]benzonitrile], which IC50 is on record?
Answer: The IC50 was 40 nM.

Question: N#Cc1c(F)ccc([C@H]2CN3CCN(C(=O)Cc4cnc(-n5cnnn5)nc4)C[C@H]3CO2)c1Cl [Example 137, 2-chloro-6-fluoro-3-[(3S,9aS)-8-{[2-(1H-tetrazol-1-yl)pyrimidin-5-yl]acetyl}octahydropyrazino[2,1-c][1,4]oxazin-3-yl]benzonitrile] was tested. Which IC50 did it give?
Answer: Its IC50 is 60 nM.

Question: For O=C1OCCc2cc([C@@H]3CN4CCN(C(=O)Cc5cnc(-n6cnnn6)nc5)C[C@H]4CO3)ccc21 [Example 145, 6-[(3R,9aS)-8-{[2-(1H-tetrazol-1-yl)pyrimidin-5-yl]acetyl}octahydropyrazino[2,1-c][1,4]oxazin-3-yl]-3,4-dihydro-1H-isochromen-1-one], which IC50 is on record?
Answer: Its IC50 is 240 nM.

Question: With Cc1nc(-n2cnnn2)nc(C)c1CC(=O)N1CCN2C[C@H](c3ccc(F)c(C#N)c3C)OC[C@H]2C1 [Example 151, 3-[(3S,9aR)-8-{[4,6-dimethyl-2-(1H-tetrazol-1-yl)pyrimidin-5-yl]acetyl}octahydropyrazino[2,1-c][1,4]oxazin-3-yl]-6-fluoro-2-methylbenzonitrile] as the molecule, how does the IC50 read?
Answer: Its IC50 is 300 nM.

Question: Cc1c([C@H]2CN3CCN(C(=O)Cc4ncc(-n5cnnn5)cc4Cl)C[C@H]3CO2)ccc(F)c1C#N [Example 153, 3-[(3S,9aS)-8-{[3-chloro-5-(1H-tetrazol-1-yl)pyridin-2-yl]acetyl}octahydropyrazino[2,1-c][1,4]oxazin-3-yl]-6-fluoro-2-methylbenzonitrile] was tested. Which IC50 did it give?
Answer: Its IC50 is 170 nM.

Question: For Cc1c([C@@H]2CN3CCN(C(=O)Cc4ncc(-n5cnnn5)cc4Cl)C[C@@H]3CO2)ccc(F)c1C#N [Example 154, 3-[(3R,9aR)-8-{[3-chloro-5-(1H-tetrazol-1-yl)pyridin-2-yl]acetyl}octahydropyrazino[2,1-c][1,4]oxazin-3-yl]-6-fluoro-2-methylbenzonitrile], which IC50 is on record?
Answer: The IC50 was 200 nM.

Reference: patent EP2790511B1 (Merck Sharp & Dohme Corp., priority 2011, dated 2013)
